Results: US7977320B2, “Method of increasing efficacy of tumor cell killing using combinations of anti-neoplastic agents” (The Regents of the University of California, priority 2004, dated 2011)

Tests used:
Format in all cases: cell-based
[1] = test system: Syk; experiment: Syk expression in primary AML samples after 5-azacytidine treatment
Method: Based on these observations, we tested a panel of 25 primary AML samples for Syk expression using standard Western blotting and an anti-Syk or anti-ZAP-70 mouse monoclonal antibody from Santa Cruz Biochem.
(§1) To evaluate the effect of certain chemotherapeutic agents on signal transduction through Syk and/or SHP-1, experiments were performed on primary AML samples. Primary leukemia cells were treated with 5-azacytidine for 4 days under otherwise normal cell culture growth conditions. The cells were then washed twice, and a proliferation assay was performed as described above. The basal level of proliferation (untreated cells) was considered as 100% and the percent change was calculated for each condition. Error bars indicate the SEM.
Syk is not only an important protein kinase, but also a tumor suppressor. In many cancer cells, Syk is silenced by hypemethylation of the DNA encoding it. This hypermethylation can lead to absence of Syk expression and, as a result, to unresponsiveness of tumor cells to various treatments. To block possible hyper-methylation and restore Syk expression in Syk-negative primary AML samples, we used 5-azacytidine. Other hypomethylating agents could work as well. The results of the experiments are depicted in FIG. 7, Panels A-D.

[2] = test system: SHP-1; experiment: SHP-1 expression in primary AML samples after 5-azacytidine treatment; details: 2 of 5 SHP-1-negative primary AML samples
[3] = test system: primary AML cells; experiment: proliferation assay of primary AML samples after 5-azacytidine treatment; details: for inhibition of proliferation: Syk+ cells, FIG. 7A
Method: as §1

[4] = test system: primary AML cells; experiment: proliferative response of primary AML samples to GO; details: for responsive samples: FIG. 3A
Method: More specifically, for Panel A, colony formation assays were performed as follows: HL-60 cells were treated and cultured in 0.3% agarose in triplicate for each condition in the presence of 0.01 ug/ml of antibodies. After 14 days of culture, the number of colonies was enumerated in each dish. The basal level of colony formation (>400 per dish) was considered as 100% and the percentage of stimulation was calculated for each condition. Error bars in the figure indicate the SEM. Each graph is representative of at least 3 independent experiments. For Panel B, primary leukemia cells were cultured for 48 hours in the presence of 0.01 ug/ml of anti-CD33 mAb or control mouse IgG. Each bar in the figure summarizes (median) the proliferative response of that group. The basal level of untreated cell proliferation (CPM>5500 CPM) was considered as 0%. Inhibition was calculated as the percent change for that condition. Error bars indicate the SEM.
With the knowledge of the effect of a naked anti-CD33 antibody on Syk activation and cell proliferation or death, we investigated the effect of an immunotoxin (GO; Mylotarg® (Wyeth)) on these characteristics. GO was selected based on its approval status by the FDA. Proliferation assays were performed as described above. Various concentration of GO were added at the initiation of 48 hour culture. The basal levels of cell proliferation (untreated cells) were >10000 cpm and were considered as 100%. The percentage of change was calculated for each condition for each sample. Error bars indicate the SEM.

[5] = test system: HL-60 cells; experiment: proliferation assay of HL-60 cells transfected with Syk si-RNA or control RNA; details: Syk si-RNA-transfected HL-60 cells versus control RNA treated or untreated cells, FIG. 4B
Method: To test whether there is a correlation between response of AML cells to CD33 ligation and/or GO treatment and the level of their Syk expression, “blocking” experiments were performed. In order to block Syk expression, we used Syk-si-RNA transfection. More specifically, for the results presented in FIGS. 4A and 4B, HL-60 cells were transfected with Syk si-RNA or control RNA and grown in cell culture under normal conditions for these cells. 72 hours post-transfection, cells were cultured in the presence of optimal ([…]) concentration of mAb, as disclosed above (FIG. 4A) or the indicated concentrations of Mylotarg® (Wyeth) (FIG. 4B). Proliferation assays were performed as described above. The basal level of proliferation was >10000 CPM (considered as 100%). Each point represents the percent change for that condition. Error bars indicate the SEM. Bars compared and marked with asterisk have a statistically significant difference. For FIG. 4C, HL-60 cells were transfected with Syk si-RNA or control RNA. After 72 hours of culture under typical culture conditions, cell lysates were prepared and used to generate immune precipitates with the appropriate mAb.

| Compound | samples with restored Syk expression ([1]; 5 of 15 Syk-negative primary AML samples) | level of Syk expression ([1]; Syk-positive samples (data not shown)) | samples with restored SHP-1 [2] | level of inhibition of proliferation ([3]; 5-aza alone, Syk-positive or SHP-positive samples versus negative samples) | inhibition of proliferation ([3]; 5-azacytidine 4 days combined with GO) | inhibition of proliferation ([3]; 5-azacytidine 4 days combined with naked anti-CD33 antibody) | effect of anti-CD33 antibodies on proliferation ([3]; Syk- cells (non-responders) treated with the hypomethylating agent, FIG. 7B) | level of inhibition of proliferation ([3]; Syk-negative or SHP-1-negative samples, 5-aza combined with Mylotarg) | level of inhibition of proliferation ([3]; Syk-negative or SHP-1-negative samples, 5-aza combined with anti-CD33 mAb) | responsive samples ([4]; Syk-negative primary AML samples) | responsive samples ([4]; Syk-positive primary AML samples) | level of inhibition of proliferation ([4]; Syk-positive samples versus Syk-negative samples, p<0.003) | proliferative response ([4]; both Syk-positive and Syk-negative samples, 48 hour culture, FIG. 3B) | response of proliferation to treatment [5] |
| --- | --- | --- | --- | --- | --- | --- | --- | --- | --- | --- | --- | --- | --- | --- |
| Nc1ncn([C@@H]2O[C@H](CO)[C@@H](O)[C@H]2O)c(=O)n1 [5-azacytidine, 5-Azacytidine] | 33% | un-changed | 40% | significantly higher | increased inhibition of proliferation | increased inhibition of proliferation | substantially increased | comparable to positive samples | comparable to positive samples |  |  |  |  |  |
| gemtuzumab ozogamicin [GO] |  |  |  |  |  |  |  |  |  | 17% | 83% | higher than in Syk-negative samples | dose-dependent inhibition | significantly lower response |
